# Results from US20030211076A1, “Compositions and methods for treatment of proliferative disorders” (priority 2003, published 2003).
# Target: T1, lysyl oxidase (LO) (Bos taurus, UniProt P33072)
# T1 construct: per mature LO molecule (32 kD); from tissue
# T1 sequence (P33072 170-418): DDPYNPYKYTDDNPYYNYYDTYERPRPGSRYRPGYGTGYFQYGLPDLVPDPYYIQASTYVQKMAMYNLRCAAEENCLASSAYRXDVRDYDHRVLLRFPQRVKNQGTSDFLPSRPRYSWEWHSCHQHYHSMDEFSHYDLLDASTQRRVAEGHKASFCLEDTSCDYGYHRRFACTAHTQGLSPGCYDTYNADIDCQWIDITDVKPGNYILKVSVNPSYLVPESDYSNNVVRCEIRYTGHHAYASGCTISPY
# Assay: LO-dependent H2O2 release, horseradish peroxidase-coupled fluorescence assay (substrate potential for LO)
# Type: biochemical
# Conditions: 55° C. and 37° C.
# Method: The oxidation of a primary amine substrate by LO yields stoichiometric amounts of the corresponding aldehyde, hydrogen peroxide and ammonia, as shown: RCH2NH2+O2+H2O→RCHO+H2O2+NH3 (Kagan, 1986). To assess the substrate potential of FGF2, LO-dependent H2O2 release was monitored in assays using FGF2 as the sole substrate, using both the optimum temperature for LO activity of 55° C. and the physiological temperature of 37° C. (Trackman et al., 1981).
# LO reaction with FGF2 as a substrate was assessed by a horseradish peroxidase-coupled fluorescence assay for H2O2 production. Reaction mixtures contained 0.25 mg of sodium homovanillate(HVA), 40 μg of HRP, and FGF2 at doses as indicated below in 0.05 M sodium borate buffer, pH 8.2, in a final volume of 2 ml. Assays were initiated by the addition of LO to reaction mixtures. H2O2 release was continuously monitored at excitation and emission wavelengths of 315 and 425 nm, respectively, at a constant temperature of 55° C. or 37° C., as specified, in the thermostatted cuvette chamber of an SLM Aminco Bowman Series 2 Luminescence Spectrometer. All activity data were corrected for background rates of H2O2 release determined in complete assay mixtures supplemented with 200 μM BAPN, an irreversible inhibitor of LO. In FIG. 4, solid curves represent the time course of H2O2 release at 55° C. in the reaction of 0.16 μM LO with 0.23 (a), 0.45 (b) and 0.9 (c) μM FGF2, respectively. Dotted curve (d) represents the time course of H2O2 release in the reaction of 0.16 μM LO with 0.9 μM FGF2 at 37° C. The same data were obtained from three separate experiments.
# Using the fluorometric assay (Trackman et al., 1981) to monitor LO-dependent H2O2 release in vitro, the substrate potential of other growth factors was also assessed. Major members of the FGF family tested included FGF 1, 4, 5, 6, 7 and EGF (note: All factors are human recombinant forms purchased from R & D Systems, Inc., Minneapolis, Minn.).
# A human recombinant disulfide-linked dimer of VEGF165 (MW: 42 kDa)(R & D Systems) as a sole substrate was tested by using the standard in vitro LO catalysis assays as described above for FIG. 4 (Trackman et al., 1981). Curves represent the time course of H2O2 release at 55° C. (a) or 37° C. (b) in the reaction of 0.10 μM LO with 0.45 μM VEGF165. All activity data were corrected for background rates of H2O2 release determined in complete assay mixtures supplemented with the same amounts of LO preincubated with 100 μM BAPN for 15 min at 37° C. The same data were obtained from three separate experiments.
# The standard in vitro LO catalysis assays as described above for FIG. 4 (Trackman et al., 1981) using human recombinant PDGF-AB (R & D Systems) as a sole substrate was tested. […] In FIG. 19, curves represent the time course of H2O2 release at 55° C. (a) and 37° C. (b) in the reaction of 0.11 μM LO with 0.46 μM PDGF-AB, respectively. All activity data were corrected for background rates of H2O2 release determined in complete assay mixtures supplemented with the same amounts of LO preincubated with 100 μM BAPN for 15 minutes at 37° C. The same data were obtained from three separate experiments.
# To analyze the substrate potential of Tat, the standard in vitro LO catalysis assays as described in FIG. 4 (Trackman et al., 1981) was performed at the optimum temperature of 55° C. and at the physiological temperature of 37° C. A recombinant Tat with 9 lysines in a total of 86 amino acids was used as a sole substrate. FIG. 12A represents a dose and temperature-dependent response. Curves represent the time course of H2O2 release at 55° C. (solid) or 37° C. (dotted) in the reaction of 0.10 μM LO with 0.22 (a and d), 0.43 (b and e) and 0.85 (c and f) μM Tat, respectively. All activity data were corrected for background rates of H2O2 release determined in complete assay mixtures supplemented with the same amounts of LO preincubated with 100 μM BAPN for 15 min at 37° C. […]
smiles,measurement,setting,value
"N#CCCN [BAPN, β-Aminopropionitrile, reference compound]",effect on H2O2 release when added after the reaction of LO with Tat was initiated,100 μM BAPN added at 200 seconds,failed to block H2O2 release
same,inhibition of the reaction of LO with Tat,LO preincubated with 100 μM BAPN for 5 minutes,totally inhibited
